Results taken from patent publication US12077501B2, “Compounds and compositions for intracellular delivery of agents” (ModernaTX, Inc., priority 2017, dated 2024).

Assays:
[1] = system: hEPO expression; assay: hEPO expression in CD-1 mice compared with MC3; format: in vivo; conditions: intravenous, 0.5 mpk, Table 7e
Text: (§1) In contrast, hEPO expression in rats induced by administration of a nanoparticle composition including a compound according to one of formulae (I), (Ia1)-(Ia6), (Ib), (II), (IIa), (III), and (IIIa) was substantially […] than that measured for MC3. […] Tables 7c and 7d show additional protein expressions and clearance data from compositions with various compounds disclosed herein as compared to with MC3. Tables 7e, 7f and 7g show hEPO expression data in CD-1 mice at a dose of 0.5 mpk.

[2] = pKa of nanoparticle compositions; format: physicochemical
[3] = Encapsulation efficiency of RNA (QUANT-IT RIBOGREEN RNA assay); format: physicochemical
Method: For nanoparticle compositions including an RNA, a QUANT-IT™ RIBOGREEN® RNA assay (Invitrogen Corporation Carlsbad, CA) can be used to evaluate the encapsulation of an RNA by the nanoparticle composition. The samples are diluted to a concentration of approximately 5 μg/mL in a TE buffer solution (10 mM Tris-HCl, 1 mM EDTA, pH 7.5). 50 μL of the diluted samples are transferred to a polystyrene 96 well plate and either 50 μL of TE buffer or 50 μL of a 2% Triton X-100 solution is added to the wells. The plate is incubated at a temperature of 37° C. for 15 minutes. The RIBOGREEN® reagent is diluted 1:100 in TE buffer, and 100 μL of this solution is added to each well. The fluorescence intensity can be measured using a fluorescence plate reader (Wallac Victor 1420 Multilablel Counter; Perkin Elmer, Waltham, MA) at an excitation wavelength of, for example, about 480 nm and an emission wavelength of, for example, about 520 nm. The fluorescence values of the reagent blank are subtracted from that of each of the samples and the percentage of free RNA is determined by dividing the fluorescence intensity of the intact sample (without addition of Triton X-100) by the fluorescence value of the disrupted sample (caused by the addition of Triton X-100).

[4] = Particle size and polydispersity index of nanoparticle compositions (Zetasizer Nano ZS); format: physicochemical
Method: A Zetasizer Nano ZS (Malvem Instruments Ltd, Malvem, Worcestershire, UK) can be used to determine the particle size, the polydispersity index (PDI) and the zeta potential of the nanoparticle compositions in 1×PBS in determining particle size and 15 mM PBS in determining zeta potential.

[5] = Lipid purity change after storage in EtOH for 96 h at 25 or 37 °C; format: physicochemical
Method: Nanoparticle compositions including a therapeutic and/or prophylactic agent can be optimized according to the selection of a compound according to one of formulae (I), (Ia1)-(Ia10), (Ib), (Ic), (Id), (Id1)-(Id10), (Ie), (Ie1)-(Ie6), (II), (IIa), (III), and (IIIa), the selection of additional lipids, the amount of each lipid in the lipid component, and the wt:wt ratio of the lipid component to the therapeutic and/or prophylactic agent, as described herein. Initial studies were performed to compare the delivery efficiency of nanoparticle compositions including various compounds according to one of formulae (I), (Ia1)-(Ia10), (Ib), (Ic), (Id), (Id1)-(Id10), (Ie), (Ie1)-(Ie6), (II), (IIa), (III), and (IIIa). The cationic lipid MC3 is a current standard in the art. Also determined was the stability of nanoparticles of the disclosure, i.e., the purity after storage in EtOH for 96h at 25° C. or 37° C. (Table Id).

[6] = Lipid clearance: % dose remaining in liver of CD-1 mice; format: in vivo; conditions: intravenous, 0.5 mg/kg, CD-1 mouse, Table 8a
Text: as §1

[7] = system: hEPO expression; assay: hEPO (miR126 + miR142) mRNA expression, Tables 8b-8e; format: in vivo; conditions: Table 8b
[8] = Table 1c, nanoparticle compositions
[9] = Table 1d, Formulated with lipid:Chol:DOPE:PEG 1 40:38.5:20:1.5

| EE (%) [3, 8] | PDI [4, 8] | Size (nm) [4, 8] | Lipid % change purity in EtOH, 25° C., 96 h [5] | Lipid % change purity in EtOH, 37° C., 96 h [5] | pKa ([2]; Table 1c) | % Dose Remaining 24 hr [6] | Structure (SMILES) | AUC (p/s*h) CD-1 mice 0.5 mpk [1] | other results |
| --- | --- | --- | --- | --- | --- | --- | --- | --- | --- |
| 97.6% | 0.23 | 71.5 nm | 14.8% | 31.5% | 5.85 | – | CCCCCCCCCN(CCCCCCCCC)CCN(CCCCCCCCC)CC(=O)N1CCC(COC(=O)CN(CCCCCCCCC)CCCCCCCCC)C1 (centres unmarked) [Compound 102, (1-(N-(2-(Dinonylamino)ethyl)-N-nonylglycyl)pyrrolidin-3-yl)methyl dinonylglycinate] | 6.34E+06 p/s*h | – |
| 96.7% | 0.21 | 82.1 nm | 1.60% | 11.81% | 6.85 | 33.71% | CCCCCCCCCN(CCCCCCCCC)CCN(CCCCCCCCC)CC(=O)N1CCN(C(=O)CN(CCCCCCCCC)CCCC(=O)SCCCCC)CC1 [Compound 134, S-Pentyl 4-((2-(4-(N-(2-(dinonylamino)ethyl)-N-nonylglycyl)piperazin-1-yl)-2-oxoethyl)(nonyl)amino)butanethioate] | – | – |
| 98.6% | 0.22 | 81.1 nm | 2.26% | 4.09% | 6.90 | 0.16% | CCCCCCCCCCCCN(CCCOC(=O)CCCCCCC)CC(=O)N1CCN(C(=O)CN(CCCCCCCCC)CCN(CCCCCCCCC)CCCCCCCCC)CC1 [Compound 135, 3-((2-(4-(N-(2-(Dinonylamino)ethyl)-N-nonylglycyl)piperazin-1-yl)-2-oxoethyl)(dodecyl)amino)propyl Octanoate] | – | – |
| 98.8% | 0.22 | 78.5 nm | 0.36% | 1.17% | 6.93 | 0.26% | CCCCCC/C=C\CC(=O)OCCCN(CCCCCCCCCCCCCC)CC(=O)N1CCN(C(=O)CN(CCCCCCCCC)CCN(CCCCCCCCC)CCCCCCCCC)CC1 [Compound 137, 3-((2-(4-(N-(2-(Dinonylamino)ethyl)-N-nonylglycyl)piperazin-1-yl)-2-oxoethyl)(tetradecyl)amino)propyl (Z)-dec-3-enoate] | – | – |
| 97.4% | 0.21 | 93.7 nm | 1.10% | 1.80% | 7.26 | 38.63% | CCCCCCCCCCCC(=O)N1CCN(C(=O)CN(CCCCCCCCC)CCN(CCCCCCCCC)CCCCCCCCC)CC1 [Compound 143, 1-(4-(N-(2-(Dinonylamino)ethyl)-N-nonylglycyl)piperazin-1-yl)dodecan-1-one] | – | – |

Second part, the compound before the results:

| Structure (SMILES) | EE (%) [3, 8] | PDI [4, 8] | Size (nm) [4, 8] | Lipid % change purity in EtOH, 25° C., 96 h [5] | Lipid % change purity in EtOH, 37° C., 96 h [5] | pKa ([2]; Table 1c) | % Dose Remaining 24 hr [6] | AUC (p/s*h) CD-1 mice 0.5 mpk [1] | other results |
| --- | --- | --- | --- | --- | --- | --- | --- | --- | --- |
| CCCCCCCCCN(CCCCCCCCC)CCN(CCCCCCCCC)CC(=O)N1CCN(C(=O)CN(CCCCCCCCC)CCCC(=O)OCCCCC)CC1 [Compound 45, Pentyl 4-((2-(4-(N-(2-(dinonylamino)ethyl)-N-nonylglycyl)piperazin-1-yl)-2-oxoethyl)(nonyl)amino)butanoate] | – | – | – | – | – | – | – | 6.98E+07 p/s*h | – |
| CCCCCCCCCN(CCCCCCCCC)CCC1CCN(C(=O)CN(CCCCCCCCC)CCN(CCCCCCCCC)CCCCCCCCC)CC1 [Compound 49, 2-((2-(Dinonylamino)ethyl)(nonyl)amino)-1-(4-(2-(dinonylamino)ethyl)piperidin-1-yl)ethan-1-one] | – | – | – | – | – | – | – | 1.59E+08 p/s*h | – |
| CCCCCCCCCN(CCCCCCCCC)CCC(=O)N1CCN(C(=O)CCN(CCCCCCCCC)CCN(CCCCCCCCC)CCCCCCCCC)CC1 [Compound 52, 3-(Dinonylamino)-1-(4-(3-((2-(dinonylamino)ethyl)(nonyl)amino)propanoyl)piperazin-1-yl)propan-1-one] | – | – | – | – | – | – | – | 7.78E+07 p/s*h | – |
| CCCCCCCCCN(CCCCCCCCC)CCN(CCCCCCCCC)CC(=O)N1CCN(C(=O)CN(CCCCCCCCC)CCCOC(=O)CCCCC)CC1 [Compound 56, 3-((2-(4-(N-(2-(Dinonylamino)ethyl)-N-nonylglycyl)piperazin-1-yl)-2-oxoethyl)(nonyl)amino)propyl hexanoate] | – | – | – | – | – | – | – | 4.52E+07 p/s*h | pKa ([2]; Table 1b): 6.94 |
| CCCCCCCCCN(CCCCC(=O)OCCCC)CCC1CCN(C(=O)CN(CCCCCCCCC)CCN(CCCCCCCCC)CCCCCCCCC)CC1 [Compound 60, Butyl 5-((2-(1-(N-(2-(dinonylamino)ethyl)-N-nonylglycyl)piperidin-4-yl)ethyl)(nonyl)amino)pentanoate] | – | – | – | – | – | – | – | 4.86E+07 p/s*h | pKa ([2]; Table 1b): 6.66 |
| CCCCCCCCCN(CCCOC(=O)CCCCC)CCC1CCN(C(=O)CN(CCCCCCCCC)CCN(CCCCCCCCC)CCCCCCCCC)CC1 [Compound 61, 3-((2-(1-(N-(2-(Dinonylamino)ethyl)-N-nonylglycyl)piperidin-4-yl)ethyl)(nonyl)amino)propyl hexanoate] | – | – | – | – | – | – | – | 6.29E+07 p/s*h | pKa ([2]; Table 1b): 6.61 |
| CCCCCCCCCN(CCCC(=O)OCCCCC)CCN(CCCCCCCCC)CC(=O)N1CCN(C(=O)CN(CCCCCCCCC)CCCC(=O)OCCCCC)CC1 [Compound 71, Pentyl 4-(nonyl(2-(4-(N-nonyl-N-(2-(nonyl(4-oxo-4-(pentyloxy)butyl)amino)ethyl)glycyl)piperazin-1-yl)-2-oxoethyl)amino)butanoate] | – | – | – | – | – | – | – | 2.48E+07 p/s*h | pKa ([2]; Table 1b): 6.44 |
| CCCCC/C=C\CCN(CC/C=C\CCCCC)CCN(CC/C=C\CCCCC)CC(=O)N1CCN(C(=O)CN(CCCCCCCCC)CCCCCCCCC)CC1 [Compound 136, 2-((2-(Di((Z)-non-3-en-1-yl)amino)ethyl)((Z)-non-3-en-1-yl)amino)-1-(4-(dinonylglycyl)piperazin-1-yl)ethan-1-one] | 97.7% | 0.23 | 72.1 nm | −0.71% | 0.77% | 6.13 | 56.18% | – | – |
| CCCCC/C=C\CCN(CC/C=C\CCCCC)CCN(CC/C=C\CCCCC)CC(=O)N1CCN(C(=O)CN(CCCCCCCCC)CCCCCCCC(=O)OC)CC1 [Compound 139, Methyl 8-((2-(4-(N-(2-(Di((Z)-non-3-en-1-yl)amino)ethyl)-N—((Z)-non-3-en-1-yl)glycyl)piperazin-1-yl)-2-oxoethyl)(nonyl)amino)octanoate] | 94.8% | 0.23 | 83.8 nm | 0.67% | 1.49% | 6.15 | 0.29% | – | – |
| CCCCCCCCCN(CCCCCCCCC)CCN(CCCCCCCCC)CC(=O)N1CCN(C(=O)CCCC(=O)OCCCCCCC)CC1 [Compound 144, Heptyl 5-(4-(N-(2-(dinonylamino)ethyl)-N-nonylglycyl)piperazin-1-yl)-5-oxopentanoate] | 97.2% | 0.19 | 83.3 nm | 5.06% | 7.63% | 7.59 | 3.25% | – | – |
| CCCCCCCCCN(CCCCCCCCC)CCN(CCCCCCCCC)CC(=O)N(C)CCCCN(C)C(=O)CN(CCCCCCCCC)CCCCCCCCC [Compound 159, 2-(dinonylamino)-N-(4-(2-((2-(dinonylamino)ethyl)(nonyl)amino)-N-methylacetamido)butyl)-N-methylacetamide] | – | – | – | – | – | – | – | – | EE (%) [3, 9]: 92.9%; PDI [4, 9]: 0.12; Size (nm) [4, 9]: 76.5 nm; AUC [7]: 6.56e+07 pg·h/mL |
